The results in this text go back to patent publication US12459899B2, “Isoquinolinone derivatives, method for preparing the same, and pharmaceutical composition for preventing or treating poly(ADP-ribose) polymerase-1-related diseases, comprising the same as active ingredient” (DIGMBIO. INC., priority 2019, dated 2025).

Usually IC50 stands for the concentration that gives 50% inhibition.

SMILES strings stand for the structures. Some results are limits rather than exact numbers.

In one experiment the target is PARP-1 (poly[ADP-ribose] polymerase 1) enzyme (Homo sapiens (Human), UniProt P09874). Nature of the experiment: PARP-1 (poly[ADP-ribose] polymerase 1) enzyme inhibitory ability, Trevigen assay kit. The format is biochemical. Conditions: 1 nM compound; read-out: PAR P-1 Inhibitory ability at 1 nM. In outline: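 After the 1 hour PARP reaction, wells were washed with PBS containing 0.1% triton X-100 and then PBS. Strep-HRP (50 μL) was bound for 1 hour, wells washed again, and 50 μL of TACS-sapphire substrate developed 15 minutes in the dark. Reactions were stopped with 50 μL of 5% phosphoric acid and absorbance read at 450 nm on a Victor3 reader.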
Sequence of PARP-1 (poly[ADP-ribose] polymerase 1) enzyme (P09874 whole entry): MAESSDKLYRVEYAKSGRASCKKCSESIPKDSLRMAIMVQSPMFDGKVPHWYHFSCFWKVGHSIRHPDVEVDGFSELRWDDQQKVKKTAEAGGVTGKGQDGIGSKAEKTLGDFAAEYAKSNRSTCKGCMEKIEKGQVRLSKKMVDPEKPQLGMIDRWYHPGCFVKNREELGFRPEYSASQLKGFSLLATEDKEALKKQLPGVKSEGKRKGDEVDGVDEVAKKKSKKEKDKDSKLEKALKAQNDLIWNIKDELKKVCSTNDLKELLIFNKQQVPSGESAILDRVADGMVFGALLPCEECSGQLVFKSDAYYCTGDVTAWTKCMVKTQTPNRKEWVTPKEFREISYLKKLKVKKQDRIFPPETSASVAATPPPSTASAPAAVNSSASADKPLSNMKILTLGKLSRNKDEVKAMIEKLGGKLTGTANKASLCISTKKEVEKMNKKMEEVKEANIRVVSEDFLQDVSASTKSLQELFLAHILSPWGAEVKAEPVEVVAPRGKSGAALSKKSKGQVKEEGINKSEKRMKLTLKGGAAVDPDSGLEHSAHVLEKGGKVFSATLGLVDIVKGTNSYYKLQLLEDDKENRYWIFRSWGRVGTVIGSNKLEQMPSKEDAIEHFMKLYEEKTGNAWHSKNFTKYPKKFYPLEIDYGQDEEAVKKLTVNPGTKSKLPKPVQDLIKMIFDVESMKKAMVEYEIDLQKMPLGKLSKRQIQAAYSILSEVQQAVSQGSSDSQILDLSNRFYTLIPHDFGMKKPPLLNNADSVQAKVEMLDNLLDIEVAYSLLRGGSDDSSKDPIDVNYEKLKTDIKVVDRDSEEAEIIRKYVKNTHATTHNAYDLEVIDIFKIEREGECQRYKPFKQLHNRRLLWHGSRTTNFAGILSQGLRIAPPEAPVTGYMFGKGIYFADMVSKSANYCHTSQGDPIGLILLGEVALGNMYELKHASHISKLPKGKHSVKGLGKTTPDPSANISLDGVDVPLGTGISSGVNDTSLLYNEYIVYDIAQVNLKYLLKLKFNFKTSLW
With `N#Cc1ccc(NC2CCN(CCCc3cc4cccc(F)c4c(=O)[nH]3)CC2)cc1` [Example 247, 4-((1-(3-(8-fluoro-1-oxo-1,2-dihydroisoquinolin-3-yl)propyl)piperidin-4-yl)amino)benzonitrile], the inhibition at 0.001 µM was in the range of 50 to 80%.
For `N#Cc1cccc(N2CCN(C(=O)CCc3cc4cccc(F)c4c(=O)[nH]3)CC2)c1` [Example 77, 3-(4-(3-(8-fluoro-1-oxo-1,2-dihydroisoquinolin-3-yl)propanoyl)piperazin-1-yl)benzonitrile], the inhibition at 0.001 µM was under 50%.
Still for that read-out and setting: the result for `Cc1ccc(F)c2c(=O)[nH]c(CCC(=O)N3CCC(O)CC3)cc12` [Example 270, 8-fluoro-3-(3-(4-hydroxypiperidin-1-yl)-3-oxopropyl)-5-methylisoquinolin-1(2H)-one] reads under 50%; that for `N#Cc1ccc(N2CCN(CCCc3cc4cccc(F)c4c(=O)[nH]3)CC2)cc1F` [Example 5, 2-fluoro-4-(4-(3-(8-fluoro-1-oxo-1,2-dihydroisoquinolin-3-yl)propyl)piperazin-1-yl)benzonitrile], under 50%; that for `Cc1ccc(F)c2c(=O)[nH]c(CCC(=O)N3C4CCC3CN(c3ccc(F)cc3)C4)cc12` [Example 208, 8-fluoro-3-(3-(3-(4-fluorophenyl)-3,8-diazabicyclo[3.2.1]octan-8-yl)-3-oxopropyl)-5-methylisoquinolin-1(2H)-one], under 50%.
The same measure, in the same setting: under `COC(=O)c1ccc(NC2CCN(C(=O)CCc3cc4c(C)cc(F)cc4c(=O)[nH]3)CC2)cc1` [Example 267, methyl 4-((1-(3-(7-fluoro-5-methyl-1-oxo-1,2-dihydroisoquinolin-3-yl)propanoyl)piperidin-4-yl)amino)benzoate] stands under 50%; under `Cc1ccc(F)c2c(=O)[nH]c(CCCN3CCN(c4ccccc4C#N)CC3)cc12` [Example 28, 2-(4-(3-(8-fluoro-5-methyl-1-oxo-1,2-dihydroisoquinolin-3-yl)propyl)piperazin-1-yl)benzonitrile], under 50%; under `Cc1ccc(F)c2c(=O)[nH]c(CCC(=O)N3CCN(C(=O)C4CCCCC4)CC3)cc12` [Example 171, 3-(3-(4-(cyclohexanecarbonyl)piperazin-1-yl)-3-oxopropyl)-8-fluoro-5-methylisoquinolin-1(2H)-one], under 50%.
Same read-out and setting: the result for `N#Cc1ccc(N2CC3CCC(C2)N3C(=O)CCc2cc3cccc(F)c3c(=O)[nH]2)nc1` [Example 206, 6-(8-(3-(8-fluoro-1-oxo-1,2-dihydroisoquinolin-3-yl)propanoyl)-3,8-diazabicyclo[3.2.1]octan-3-yl)nicotinonitrile] reads under 50%; that for `O=c1[nH]c(CCCN2CC=C(c3cccc(F)c3)CC2)cc2ncccc12` [Example 238, 7-(3-(4-(3-fluorophenyl)-3,6-dihydropyridin-1(2H)-yl)propyl)-1,6-naphthyridin-5(6H)-one], under 50%.
For the compound `Cc1cc(F)cc2c(=O)[nH]c(CCC(=O)N3CCC(Nc4ccc(C(F)(F)F)cc4)CC3)cc12` [Example 265, 7-fluoro-5-methyl-3-(3-oxo-3-(4-((4-(trifluoromethyl)phenyl)amino)piperidin-1-yl)propyl)isoquinolin-1(2H)-one], the inhibition at 0.001 µM is under 50%.
Still for that read-out and setting: the result for `N#Cc1cc(F)ccc1C1=CCN(C(=O)CCc2cc3ccc(F)cc3c(=O)[nH]2)CC1` [Example 112, 5-fluoro-2-(1-(3-(7-fluoro-1-oxo-1,2-dihydroisoquinolin-3-yl)propanoyl)-1,2,3,6-tetrahydropyridin-4-yl)benzonitrile] reads under 50%; that for `Cc1cnc(N2CCN(CCCc3cc4c(C)ccc(F)c4c(=O)[nH]3)CC2)s1` [Example 30, 8-fluoro-5-methyl-3-(3-(4-(5-methylthiazole-2-yl)piperazin-1-yl)propyl)isoquinolin-1(2H)-one], under 50%; that for `Cc1ccc(F)c2c(=O)[nH]c(CCC(=O)N3CC=C(c4ccc(C#N)nc4)CC3)cc12` [Example 145, 1′-(3-(8-fluoro-5-methyl-1-oxo-1,2-dihydroisoquinolin-3-yl)propanoyl)-1′,2′,3′,6′-tetrahydro-[3,4′-bipyridine]-6-carbonitrile], under 50%.
Turning to `N#Cc1ccccc1N1CCN(C(=O)CCc2cc3ccc(F)cc3c(=O)[nH]2)CC1` [Example 98, 2-(4-(3-(7-fluoro-1-oxo-1,2-dihydroisoquinolin-3-yl)propanoyl)piperazin-1-yl)benzonitrile], the inhibition at 0.001 µM was under 50%.
Still for that read-out and setting: under `O=c1[nH]c(CCCN2CC=C(c3ccc(F)nc3)CC2)cc2cccc(F)c12` [Example 43] stands under 50%; under `O=c1[nH]c(CCCN2CCC(Nc3ccc(C(F)(F)F)cc3)CC2)cc2ncccc12` [Example 253, 7-(3-(4-((4-(trifluoromethyl)phenyl)amino)piperidin-1-yl)propyl)-1,6-naphthyridin-5(6H)-one], under 50%; under `O=C(CCc1cc2ncccc2c(=O)[nH]1)N1CC=C(c2ccc(F)cc2)CC1` [Example 244, 7-(3-(4-(4-fluorophenyl)-3,6-dihydropyridin-1(2H)-yl)-3-oxopropyl)-1,6-naphthyridin-5(6H)-one], under 50%.
The same measure, in the same setting: under `N#Cc1ccc(N2CCN(C(=O)CCc3cc4ccc(F)cc4c(=O)[nH]3)CC2)c(F)c1` [Example 100, 3-fluoro-4-(4-(3-(7-fluoro-1-oxo-1,2-dihydroisoquinolin-3-yl)propanoyl)piperazin-1-yl)benzonitrile] stands under 50%.
Same read-out and setting: under `Cc1cc(F)cc2c(=O)[nH]c(CCC(=O)N3C4CCC3CN(c3ccc(F)cn3)C4)cc12` [Example 219, 7-fluoro-3-(3-(3-(5-fluoropyridin-2-yl)-3,8-diazabicyclo[3.2.1]octan-8-yl)-3-oxopropyl)-5-methylisoquinolin-1(2H)-one] stands under 50%; under `N#Cc1ccc(OC2CCN(CCCc3cc4cccc(F)c4c(=O)[nH]3)CC2)cc1` [Example 254, 4-((1-(3-(8-fluoro-1-oxo-1,2-dihydroisoquinolin-3-yl)propyl)piperidin-4-yl)oxy)benzonitrile], under 50%.
For the compound `Cc1cc(F)cc2c(=O)[nH]c(CCCN3CCN(c4ccc(C#N)cn4)CC3)cc12` [Example 36, 6-(4-(3-(7-fluoro-5-methyl-1-oxo-1,2-dihydroisoquinolin-3-yl)propyl)piperazin-1-yl)nicotinonitrile], the inhibition at 0.001 µM fell in the range of 50 to 80%.
In the case of `O=c1[nH]c(CCCN2CC=C(c3ccnc(F)c3)CC2)cc2ncccc12` [Example 237, 7-(3-(2′-fluoro-3,6-dihydro-[4,4′-bipyridine]-1(2H)-yl)propyl)-1,6-naphthyridin-5(6H)-one], the inhibition at 0.001 µM is under 50%.
Turning to `Cc1ccc(F)c2c(=O)[nH]c(CCC(=O)N3C4CCC3CN(c3ccc(F)nc3)C4)cc12` [Example 211, 8-fluoro-3-(3-(3-(6-fluoropyridin-3-yl)-3,8-diazabicyclo[3.2.1]octan-8-yl)-3-oxopropyl)-5-methylisoquinolin-1(2H)-one], the inhibition at 0.001 µM is under 50%.
With `Cc1ccc(F)c2c(=O)[nH]c(CCCN3CC=C(c4ccc(C#N)cn4)CC3)cc12` [Example 57, 1′-(3-(8-fluoro-5-methyl-1-oxo-1,2-dihydroisoquinolin-3-yl)propyl)-1′,2′,3′,6′-tetrahydro-[2,4′-bipyridine]-5-carbonitrile], the inhibition at 0.001 µM lay within 50 to 80%.
With `O=c1[nH]c(CCCN2CCN(c3cccc(F)c3)CC2)cc2ncccc12` [Example 224, 7-(3-(4-(3-fluorophenyl)piperazin-1-yl)propyl)-1,6-naphthyridin-5(6H)-one], the inhibition at 0.001 µM is under 50%.
On the same count and under the same terms, under `Cc1cc(F)cc2c(=O)[nH]c(CCCN3CCN(c4ccc(C(F)(F)F)cc4)CC3)cc12` [Example 39, 7-fluoro-5-methyl-3-(3-(4-(4-(trifluoromethyl)phenyl)piperazin-1-yl)propyl)isoquinolin-1(2H)-one] stands under 50%.
Same read-out and setting: under `O=C(CCc1cc2ccc(F)cc2c(=O)[nH]1)N1CC=C(c2ccnc(F)c2)CC1` [Example 121, 7-fluoro-3-(3-(2′-fluoro-3,6-dihydro-[4,4′-bipyridine]-1(2H)-yl)-3-oxopropyl)isoquinolin-1(2H)-one] stands under 50%; under `Cc1cc(F)cc2c(=O)[nH]c(CCC(=O)N3CCC(Nc4ccc(Cl)cc4)CC3)cc12` [Example 263, 3-(3-(4-((4-chlorophenyl)amino)piperidin-1-yl)-3-oxopropyl)-7-fluoro-5-methylisoquinolin-1(2H)-one], under 50%.
On the same count and under the same terms, under `N#Cc1ccc(N2CC3CCC(C2)N3CCCc2cc3ncccc3c(=O)[nH]2)nc1` [Example 232, 6-(8-(3-(5-oxo-5,6-dihydro-1,6-naphthyridin-7-yl)propyl)-3,8-diazabicyclo[3.2.1]octan-3-yl)nicotinonitrile] stands under 50%.
With `Cc1ccc(F)c2c(=O)[nH]c(CCC(=O)N3CCC(Oc4ccc(C#N)cc4)CC3)cc12` [Example 261, 4-((1-(3-(8-fluoro-5-methyl-1-oxo-1,2-dihydroisoquinolin-3-yl)propanoyl)piperidin-4-yl)oxy)benzonitrile], the inhibition at 0.001 µM was under 50%.
Still for that read-out and setting: the result for `Cc1ccc(F)c2c(=O)[nH]c(CCCN3CC[C@@H](c4ccc(F)cc4)C3)cc12` [Example 32, (S)-8-fluoro-3-(3-(3-(4-fluorophenyl)pyrrolidin-1-yl)propyl)-5-methylisoquinolin-1(2H)-one] reads under 50%; that for `N#Cc1ccc(NC2CCN(CCCc3cc4ccc(F)cc4c(=O)[nH]3)CC2)cc1` [Example 249, 4-((1-(3-(7-fluoro-1-oxo-1,2-dihydroisoquinolin-3-yl)propyl)piperidin-4-yl)amino)benzonitrile], under 50%.

The experiment is the same for the next values; noted with them: PARP-1 enzyme activity.
For the compound `Cc1ccc(F)c2c(=O)[nH]c(CCCN3CC=C(c4ccc(C#N)cn4)CC3)cc12` [Example 57, 1′-(3-(8-fluoro-5-methyl-1-oxo-1,2-dihydroisoquinolin-3-yl)propyl)-1′,2′,3′,6′-tetrahydro-[2,4′-bipyridine]-5-carbonitrile], half-maximal inhibition (IC50) was put at 0.91 nM.
